“Also recorded” adds a separate entry of the source.
Columns and labels:
PC12 cells = experiment: NGF-induced neurite outgrowth; format: cell-based; settings: NGF 50 ng/ml
Experimental: PC12 were transfected with GFP-TRIPα (lack squares) or GFP (white diamonds) and subjected to a time-course exposure to NGF (50 ng/ml). At each time-point cells were fixed and the number of transfected cells with neurites was counted from at least 200 cells.
Since Trio is an activator of RhoA and is expressed in PC12 cells (Estrach et al., 2002), it was analysed whether TRIPα could interfere with serum-induced neurite retraction in NGF-differentiated PC12 cells. […] After NGF treatment, cells were subjected to serum addition (DMEM medium supplemented with 10% HS and 5% fetal calf serum (FCS)) from 0 to 15 min (FIG. 6A). Cells were then fixed and permeabilised (Estrach et al., 2002) and observed as described in FIG. 5. Cells with neurites are defined as cells with neurites of at least twice the length of the cell body.
However, since the NGF treatment was performed for 16 hours, it was still possible that the effect of TRIPα on the NGF-differentiation signal was masked by the long NGF exposure. To test this hypothesis, PC12 cells expressing GFP-TRIPα or […] were subjected to a time-course exposure to NGF (50 ng/ml) for 1 to 24 hours.

[1] = system: ectopically expressed TrioGEFD2 in PC12 cells; experiment: NGF-induced neurite outgrowth in PC12 cells expressing TrioGEFD2; format: cell-based; settings: PC12 co-transfected with TrioGEFD2, NGF 50 ng/ml 16 hours
Experimental: FIG. 5C represents the inhibition by TRIPα of the TrioGEFD2 effect in neuronal morphology. Immunofluorescence images of PC12 cells co-transfected with HA-TrioGEFD2 and either GFP-TRIPα (panels d, e, f) or GFP alone panels a, b, c) are shown. After 48 hours of expression, cells were treated for 16 hours with NGF (nerve growth factor) (50 ng/ml) and fixed. Expression of GFP and GFP-TRIPα was directly visualised (a, d) whereas overexpressed TrioGEFD2 was detected using the 12CA5 anti-HA antibody followed by AMCA-conjugated anti-mouse IgG (b, e). Filamentous actin was stained with Rhodamine-conjugated Phalloidin (c, f). Scale bar: 20 μm.
Cells were transfected with HA-tagged TrioGEFD2 (left side of the figure), myc-tagged KalGEFD2 (middle of the figure) or RhoAV14 (a constitutively active mutant of RhoA) (right side of the figure), and with either GFP-TRIPα (white bars), GFP-TRIPβ (hatched bars) or GFP alone (black bars). Cells were processed as described in FIG. 5C and the number of co-transfected cells with neurites was counted.
Numerous reports have established Rho-GTPases as key regulators of neuronal morphology (Luo, 2000). In neuronal cell lines, activation of RhoG, Rac and Cdc42 induces neurite outgrowth, while RhoA stimulation antagonises this effect by promoting neurite retraction (Katoh et al., 2000; Kozma et al., 1997; Yamaguchi et al., 2001). The PC12 cell line is a useful cellular model for studying Nerve Growth Factor (NGF)-induced neuronal differentiation. PC12-E2 cells were plated on collagen-coated 12 mm coverslips as described previously (Estrach et al., 2002) and transfected with the Lipofectamine Plus reagent (Life Technologies) according to the manufacturer's instructions. After transfection and differentiation with NGF (Promega, 50 ng/ml in DMEM medium supplemented with 0.5% horse serum (HS)) for 16 hours, PC12 cells were fixed and permeabilised as described (Estrach et al., 2002). […] Images were recorded using a Hamamatsu CCD camera. All transfections were repeated at least three times, and an average of 200 cells was counted each time. […]

PDZRhoGEF = experiment: Binding specificity of aptamers in yeast; parameters: key: +++^1 and +^1 represent respectively a full and a partial (see FIG. 1) binding capacity; +++^1 and +^1 represent respectively a full and a partial (see FIG. 1) binding capacity; −−^1 represents a lack of binding; settings: RhoGEF PDZRhoGEF
Source text: (§1) Trx represents the thioredoxin protein with no inserted peptide.
(§2) In order to identify specific inhibitors of TrioGEFD2, a recently developed strategy was used, this strategy being derived from the yeast two hybrid system, where the cDNA library of preys has been replaced by a combinatorial library of short peptides (20 amino acids) in fusion with the bacterial protein thioredoxin A (Colas et al., 1996). This strategy has been successfully used to isolate specific inhibitors of the cyclin-dependent kinases (Cdks), the cell cycle transcription factor E2F, or the viral HPV16 E6 oncoprotein and HBEV core protein (Colas et al., 1996; Butz et al., 2001; Fabrizzio et al., 1999; Geyer et al., 2000). The TrioGEFD2 bait was constructed as follows: plasmid pMTHATrio1848-2298 (Bellanger et al., 1998) was digested with EcoRI/XhoI and the insert cloned in pEG202EcoRI/XhoI to generate the bait pEG202TroGEFD2. Yeast strain EGY048 (Colas et al., 1996) was transformed with pEG202TrioGEFD2 and subsequently with the library of Thioredoxin constrained aptamers according to standard procedures (Ito et al., 1983). After transformation, cells were allowed to recover for 4 hours in galactose containing medium before plating on selective galactose medium. Of the 2×10^6 screened colonies, those growing in the selective medium were recovered and retested for interaction. […] Binding specificity was investigated by screening for interaction with the following baits: TrioDH2 (a.a. 1848-2096), TrioPH2 (a.a. 2107-2223), TrioGEFD1 (a.a. 1232-1629), Dbl (a.a. 498-826), Vav (ala. 172-598) (Zhang et al, 1994), GEFD2 domain of Kalirin (a.a. 1640-1980)(Penzes et al., 2001), p115RhoGEF (a.a. 391-870)(Wells et al, 2002) and PDZRhoGEF (a.a. 964-1362) (Fukuhara et al., 1999). None of these aptamers interacted with other RhoGEF members such as Dbl, Vav, and the RhoA-specific GEFs p115RhoGEF and PDZRhoGEF.

Vav = experiment: Binding specificity of aptamers in yeast; parameters: key: +++^1 and +^1 represent respectively a full and a partial (see FIG. 1) binding capacity; +++^1 and +^1 represent respectively a full and a partial (see FIG. 1) binding capacity; −−^1 represents a lack of binding; settings: RhoGEF Vav
Source text: as §1, §2

| Molecule | Effect on NGF-induced neurite outgrowth, time course (PC12 cells; 1 to 24 hours) | Effect on NGF-induced neurite outgrowth after 16 hours NGF (PC12 cells; 16 hours) | Reversion of TrioGEFD2 inhibition of NGF-induced neurite outgrowth [1] | Binding in yeast (PDZRhoGEF) | Binding in yeast (Vav) |
| --- | --- | --- | --- | --- | --- |
| AREGADGAICGYNLATLVMLGPSERVFCPLCEPCSSDIYELM [TRIPα, 42-amino acid peptide corresponding to the variable region of TRIAPα] | enhances NGF-induced neurite outgrowth | had no visible effect on the NGF pathway; also recorded: does not seem to have an effect | only the TrioGEFD2 effect is reversed |  |  |
| TRIAPα: aptamer of 154 amino acids: variable region of 42 amino acids inserted into the thioredoxin protein; tested as GST fusion (protein) MSDKIIHLTDDSFDTDVLKADGAILVDFWAEWCGPAREGADGAICGYNLATLVMLGPSERVFCPLCEPCSSDIYELMGPCKMIAPILDEIADEYQGKLTVAKLNIDQNPGTAPKYGIRGIPTLLLFKNGEVASATKVGALSKGQLKEFLDANLA |  |  |  | −−^1 | −−^1 |
